Data published in patent publication US10980239B2, “Decontamination solution and its use for denaturation, modification, degradation, solubilisation and removal of proteins, nucleic acid molecules and microorganisms” (MULTIBIND BIOTEC GMBH, priority 2005, dated 2021).

Legend:
Format in all cases: cell-based
Escherichia coli = assay: Test for the anti-microbial action, colony count after plating; settings: 10^6 cells in 50 μl mixed 1:1 with solution, 2 minutes incubation, plated, 1-3 days at 37° C.
Procedure: (§1) Freshly grown cultures of the listed microorganisms were adjusted to a cell number of 10^6 in a 50 μl volume and mixed in a ratio of 1:1 with 50 μl of water, 70% ethanol or the three component system (100 mM ascorbic acid, 10 mM FeCl3 and 0.5% SDS). After an incubation time of 2 minutes the 100 μl samples containing the microorganisms were plated onto the respective growth media. After an incubation period of 1-3 days at 28° C. (Saccharomyces cerevisiae and Candida parapsilosis) or 37° C. (Escherichia coli and Bacillus subtilis) the number of grown colonies was determined.

Saccharomyces cerevisiae = assay: as above; settings: 10^6 cells in 50 μl mixed 1:1 with solution, 2 minutes incubation, plated, 1-3 days at 28° C.
Procedure: as §1

Bacillus subtilis = assay: as above; settings: 10^6 cells in 50 μl mixed 1:1 with solution, 2 minutes incubation, plated, 1-3 days at 37° C.
Procedure: as §1

[1] = tested on: listed microorganisms (Escherichia coli, Bacillus subtilis, Saccharomyces cerevisiae, Candida parapsilosis); assay: Test for the anti-microbial action, summary for all listed microorganisms; settings: 10^6 cells mixed 1:1 with solution, 2 minutes incubation, plated, 1-3 days
Procedure: as §1

[2] = tested on: recombinant Escherichia coli strain with an extra-chromosomal plasmid (YEp351); assay: Degradation of genomic DNA and extra-chromosomal genetic material inside microorganisms (FIG. 8, gel electrophoresis); settings: 5 μl E. coli suspension, lysozyme 5 minutes, then 5 μl solution for 5 minutes
Procedure: A recombinant Escherichia coli strain with an extra-chromosomal plasmid (YEp351) was grown over night in LB, amp medium. Aliquots of 5 μl from the E. coli suspension were treated with 5 μl lysozyme solution (1 mg/ml) for 5 minutes and subsequently incubated with 5 μl of the listed solutions (1-5) for additional 5 minutes. After addition of bromphenol blue the samples were loaded into the gel slots and separated by electrophoresis of the DNA molecules.
(M: Marker 1 Kb Ladder; C: Control with H2O; 1: 70% Ethanol; 2: 0.5% Bacillozid™; 3: 0.5% SDS; 4: 0.5% Na-Azide+0.5% SDS; 5: 100 mM vitamin C+10 mM FeCl3+0.5% SDS; C: Control: 5 μl sterile H2O)

CCO [70% ethanol, ethanol]
number of grown colonies (Escherichia coli): 0 | number of grown colonies (Saccharomyces cerevisiae): 0 | number of grown colonies (Bacillus subtilis): 0 | living cell colonies, all listed microorganisms [1]: did not show any living cell colony | effect on cells and DNA molecules seen in the gel [2]: precipitation of the lysate and the DNA

CCCCCCCCCCCCOS(=O)(=O)[O-].[Na+] [sample 3, Sodiumdodecylsulfate]
effect on cells and DNA molecules seen in the gel [2]: lysis of the cells is observed
